Reference: patent publication US20260231994A1, “TASTE-ENHANCING COMPOSITION, METHOD FOR PRODUCING SAME, FOOD PRODUCT, AND METHOD FOR ENHANCING TASTE OF FOOD PRODUCT” (HOUSE FOODS GROUP INC., priority 2023, published 2026)

Legend:
Type in all cases: in vivo
[1] = Experiment 6 sensory evaluation of cyclic dipeptides, “boosting of last flavor (aftertaste)”
Procedure: (§1) An aqueous solution in which the concentration of each of the cyclic dipeptides shown in the table described below is set to be the same as its concentration in the heat-treated coriander prepared in 1.1. described above, as estimated from the ratio of the peak area of the cyclic dipeptides to the peak area of the internal standard (47 μg/g of L-lysine-^13C6 monohydrochloride) (hereinafter referred to as “heat-treated coriander equivalent aqueous solution”) was prepared. An aqueous solution in which the concentration of each of the cyclic dipeptides is set to be the same as its concentration in the heat-treated paprika of Example 203 prepared in 2.1 described above (hereinafter referred to as “heat-treated paprika equivalent aqueous solution”) was also prepared. Cyclic dipeptides prepared by the applicant were used in this experiment. As a cyclic dipeptide comprising Leu/Ile, a mixture comprising equal parts of cyclic dipeptide comprising Leu and cyclic dipeptide comprising Ile was used.
(§2) Common and reduced-sodium curry rouxes were prepared according to the procedures described in (1) and (2) of 1.3. described above.
(§3) Two dispersions of 44 g of the aforesaid reduced-sodium curry roux dispersed in 300 g of hot water were prepared. To one of them was added the heat-treated coriander equivalent solution or heat-treated paprika equivalent aqueous solution of the individual cyclic dipeptides shown in the table described below so as to be in the final concentration of 0.5% (w/w) or 1.0% (w/w), respectively.
(§4) Forty-four grams of the aforesaid common curry roux was dispersed in 300 g of hot water.
(§5) The dispersion of reduced-sodium curry roux dispersed in hot water and the dispersion of common curry roux dispersed in hot water were used as comparative controls, and the strength of the flavor was evaluated by three evaluators on the basis of the following evaluation criteria from the viewpoint of “top sharp saltiness”, “middle fullness (enhanced thickness) and “boosting of last flavor (aftertaste).”
(§6) The average of the evaluated scores was defined as “F” when it was 1.0 or lower, “C” when it was 1.1 or higher and 1.9 or lower, “B” when it was 2.0 or higher and 2.5 or lower, “A” when it was 2.6 or higher and 2.9 or lower, and “AA” when it was 3.0 or higher.
(§7) In the table described below, “ID” refers to the compound ID described above. The items of “coriander 0.5%” and “coriander 1.0%” refer to the addition of the aforesaid heat-treated coriander equivalent aqueous solution of cyclic dipeptide so that the final concentrations may be 0.5% (w/w) and 1.0% (w/w), respectively. The items of “paprika 0.5%” and “paprika 1.0%” refer to the addition of the aforesaid heat-treated paprika equivalent aqueous solution of cyclic dipeptide so that the final concentration may be 0.5% (w/w) and 1.0% (w/w), respectively.

[2] = Experiment 6 sensory evaluation of cyclic dipeptides, “top sharp saltiness”
Procedure: as §1, §2, §3, §4, §5, §6, §7

[3] = Experiment 6 sensory evaluation of cyclic dipeptides, “middle fullness (enhanced thickness)”
Procedure: as §1, §2, §3, §4, §5, §6, §7

[4] = Additive amount coriander 0.5%, reduced-sodium curry roux
[5] = heat-treated coriander equivalent aqueous solution of cyclic dipeptide, final 1.0% (w/w) in reduced-sodium curry roux dispersion
[6] = heat-treated coriander equivalent aqueous solution of cyclic dipeptide, final 1.0% (w/w) in reduced-sodium curry roux dispersion, 3 evaluators
[7] = Additive amount coriander 0.5% (heat-treated coriander equivalent aqueous solution, final 0.5% (w/w)), reduced-sodium curry roux
[8] = Additive amount paprika 0.5%, reduced-sodium curry roux
[9] = heat-treated paprika equivalent aqueous solution of cyclic dipeptide, final 1.0% (w/w) in reduced-sodium curry roux dispersion
[10] = heat-treated paprika equivalent aqueous solution of cyclic dipeptide, final 1.0% (w/w) in reduced-sodium curry roux dispersion, 3 evaluators
[11] = Additive amount paprika 0.5% (heat-treated paprika equivalent aqueous solution, final 0.5% (w/w)), reduced-sodium curry roux

Substance	Bosting of last flavor Average [1, 4]	Bosting of last flavor Evaluation [1, 4]	Bosting of last flavor Evaluation [1, 5]	Bosting of last flavor Average [1, 6]	Top sharp saltiness Average [2, 7]	Top sharp saltiness Evaluation [2, 4]	Top sharp saltiness Evaluation [2, 5]	Top sharp saltiness Average [2, 6]	Middle fullness Average [3, 4]	Middle fullness Evaluation [3, 4]	Middle fullness Evaluation [3, 5]	Middle fullness Average [3, 6]	Bosting of last flavor Average [1, 8]	Bosting of last flavor Evaluation [1, 8]	Bosting of last flavor Evaluation [1, 9]	Bosting of last flavor Average [1, 10]	Top sharp saltiness Average [2, 11]	Top sharp saltiness Evaluation [2, 8]	Top sharp saltiness Evaluation [2, 9]	Top sharp saltiness Average [2, 10]	other results
cyclic (Glu-Phe) [Coriander ID 46]	2.8 points	A (“A” when it was 2.6 or higher and 2.9 or lower)	B (“B” when it was 2.0 or higher and 2.5 or lower)	2.5 points	3.0 points	AA (“AA” when it was 3.0 or higher)	B (“B” when it was 2.0 or higher and 2.5 or lower)	2.5 points	2.8 points	A (“A” when it was 2.6 or higher and 2.9 or lower)	A (“A” when it was 2.6 or higher and 2.9 or lower)	2.7 points	–	–	–	–	–	–	–	–	–
cyclic (Glu-Tyr) [Coriander ID 19]	–	–	–	–	–	–	–	–	–	–	–	–	2.5 points	B (“B” when it was 2.0 or higher and 2.5 or lower)	A (“A” when it was 2.6 or higher and 2.9 or lower)	2.8 points	2.3 points	B (“B” when it was 2.0 or higher and 2.5 or lower)	A (“A” when it was 2.6 or higher and 2.9 or lower)	2.8 points	Middle fullness Average [3, 8]: 2.7 points; Middle fullness Evaluation [3, 8]: A (“A” when it was 2.6 or higher and 2.9 or lower); Middle fullness Evaluation [3, 9]: AA (“AA” when it was 3.0 or higher); Middle fullness Average [3, 10]: 3.0 points
cyclic (Gly-Ala) [Coriander ID 57]	2.3 points	B (“B” when it was 2.0 or higher and 2.5 or lower)	A (“A” when it was 2.6 or higher and 2.9 or lower)	2.7 points	2.0 points	B (“B” when it was 2.0 or higher and 2.5 or lower)	B (“B” when it was 2.0 or higher and 2.5 or lower)	2.2 points	2.0 points	B (“B” when it was 2.0 or higher and 2.5 or lower)	B (“B” when it was 2.0 or higher and 2.5 or lower)	2.5 points	–	–	–	–	–	–	–	–	–
cyclic (Gly-Arg) [Coriander ID 7]	3.0 points	AA (“AA” when it was 3.0 or higher)	C (“C” when it was 1.1 or higher and 1.9 or lower)	1.5 points	2.5 points	B (“B” when it was 2.0 or higher and 2.5 or lower)	C (“C” when it was 1.1 or higher and 1.9 or lower)	1.3 points	3.2 points	AA (“AA” when it was 3.0 or higher)	C (“C” when it was 1.1 or higher and 1.9 or lower)	1.7 points	–	–	–	–	–	–	–	–	–
cyclic (Gly-Gly) [Coriander ID 54]	3.0 points	AA (“AA” when it was 3.0 or higher)	B (“B” when it was 2.0 or higher and 2.5 or lower)	2.3 points	2.2 points	B (“B” when it was 2.0 or higher and 2.5 or lower)	A (“A” when it was 2.6 or higher and 2.9 or lower)	2.8 points	2.5 points	B (“B” when it was 2.0 or higher and 2.5 or lower)	A (“A” when it was 2.6 or higher and 2.9 or lower)	2.7 points	–	–	–	–	–	–	–	–	–
cyclic (Gly-His) [Coriander ID 4]	3.5 points	AA (“AA” when it was 3.0 or higher)	B (“B” when it was 2.0 or higher and 2.5 or lower)	2.5 points	2.8 points	A (“A” when it was 2.6 or higher and 2.9 or lower)	B (“B” when it was 2.0 or higher and 2.5 or lower)	2.3 points	3.3 points	AA (“AA” when it was 3.0 or higher)	A (“A” when it was 2.6 or higher and 2.9 or lower)	2.7 points	–	–	–	–	–	–	–	–	–
cyclic (Gly-Leu/Ile) [Coriander ID 25]	–	–	–	–	–	–	–	–	–	–	–	–	3.0 points	AA (“AA” when it was 3.0 or higher)	A (“A” when it was 2.6 or higher and 2.9 or lower)	2.7 points	3.0 points	AA (“AA” when it was 3.0 or higher)	A (“A” when it was 2.6 or higher and 2.9 or lower)	2.8 points	Middle fullness Average [3, 8]: 2.7 points; Middle fullness Evaluation [3, 8]: A (“A” when it was 2.6 or higher and 2.9 or lower); Middle fullness Evaluation [3, 9]: A (“A” when it was 2.6 or higher and 2.9 or lower); Middle fullness Average [3, 10]: 2.7 points
cyclic (Gly-Phe) [Coriander ID 28]	–	–	–	–	–	–	–	–	–	–	–	–	3.2 points	AA (“AA” when it was 3.0 or higher)	B (“B” when it was 2.0 or higher and 2.5 or lower)	2.5 points	2.7 points	A (“A” when it was 2.6 or higher and 2.9 or lower)	B (“B” when it was 2.0 or higher and 2.5 or lower)	2.3 points	Middle fullness Average [3, 8]: 3.2 points; Middle fullness Evaluation [3, 8]: AA (“AA” when it was 3.0 or higher); Middle fullness Evaluation [3, 9]: B (“B” when it was 2.0 or higher and 2.5 or lower); Middle fullness Average [3, 10]: 2.5 points
